Laboratory results from publication PMC11339918, “Extracellular Domain of IL-10 Receptor Chain-2 (IL-10R2) and Its Arginine-Containing Peptides Are Susceptible Substrates for Human Prostate Kallikrein-2 (KLK2)” (Biochemistry, 2024).

B1: recombinant IL-10: recombinant IL-10 (10 ng/mL) used in BMDM activation assay (protein, UniProt P18893 19-178, looked up)
Interleukin-10: SRGQYSREDNNCTHFPVGQSHMLLELRTAFSQVKTFFQTKDQLDNILLTDSLMQDFKGYLGCQALSEMIQFYLVEVMPQAEKHGPEIKEHLNSLGEKLKTLRMRLRRCHRFLPCENKSKAVEQVKSDFNKLQDQGVYKAMNEFDIFINCIEAYMMIKMKS

System: BMDM cells
Assay: BMDM activation with LPS/IFN-γ: NO, TNF-α and IL-12 p40 in supernatant
Format: cell-based, C57Bl/6 mice
Settings: 72 h, Griess, ELISA; for IL-10 inhibition of NO, TNF-α and IL-12 p40 generation in pretreated BMDM: pretreatment 7.5 μg/mL for 2 h, then LPS 200 ng/mL / IFN-γ 100 U/mL ± IL-10 10 ng/mL
Protocol: BMDM were obtained from C57Bl/6 mice and used as previously reported.[17]
For BMDM activation assays in vitro, cells were plated at a density of 10^5 cells/mL in 96-well plates at 37 °C in the absence and presence of KLK2 or KLK3 (7.5 μg/mL) for 2 h. The cells were then washed with PBS and treated with LPS (200 ng/mL)/IFN-γ (100 U/mL) stimuli in the presence or absence of recombinant IL-10 (10 ng/mL). The activation response of BMDM cells was evaluated after 72 h by quantification of nitric oxide (NO), TNF-α, and IL-12 p40 in the supernatant of BMDM cell cultures. NO was quantified using the Griess assay,[19] and the cytokines TNF-α and IL-12 p40 were quantified using sandwich enzyme-linked immunosorbent assay (ELISA) kits (B.D. Biosciences) following the manufacturer’s instructions.
Figure 3 KLK2 converts BMDM cells to a pro-inflammatory status characterized by maintaining NO, TNF-α, and IL-12p40 levels, even in the presence of recombinant IL-10. BMDM cells from C57Bl/6 mice were incubated in a 96-well plate (1 × 10^5 cells) with KLK2 (7.5 μg/mL) or KLK3 (7.5 μg/mL) for 2 h. After this, cells were washed and incubated with or without lipopolysaccharide (LPS) (200 ng/mL), IFN-γ (IFN), and recombinant IL-10 (IL10). (A) NO quantified in the culture supernatant by the Griess method. (B) TNF-α and (C) IL-12 p40 cytokines were quantified by ELISA in culture supernatants. MΦ = control macrophages. * p-value <0.001, analyzed by ANOVA with Tukey’s multiple comparisons.

| Molecule | IL-10 inhibition of NO, TNF-α and IL-12 p40 generation in pretreated BMDM | generation of NO, TNF-α and IL-12 p40 in LPS/IFN-γ activated BMDM (IL-10 10 ng/mL, LPS 200 ng/mL / IFN-γ 100 U/mL) |
| --- | --- | --- |
| KLK2: human prostate kallikrein-2, recombinant, from a baculovirus-insect cell line system | these IL-10 inhibitory effects were not observed | – |
| KLK3: human kallikrein-related peptidase 3 (PSA—prostatic-specific antigen) | did not show these effects | – |
| B1 | – | reduced the generation of NO, TNF-α, and IL-12 p40 |
